Source: paper PMC8655160, “Overcome Chemoresistance: Biophysical and Structural Analysis of Synthetic FHIT-Derived Peptides” (Frontiers in Molecular Biosciences, 2021)

T1: ANXA4 (Homo sapiens, UniProt P09525)
T1 construct: purchased Genscript lot N. U8886ED090-5/P3ED001
T1 sequence (P09525 1-319): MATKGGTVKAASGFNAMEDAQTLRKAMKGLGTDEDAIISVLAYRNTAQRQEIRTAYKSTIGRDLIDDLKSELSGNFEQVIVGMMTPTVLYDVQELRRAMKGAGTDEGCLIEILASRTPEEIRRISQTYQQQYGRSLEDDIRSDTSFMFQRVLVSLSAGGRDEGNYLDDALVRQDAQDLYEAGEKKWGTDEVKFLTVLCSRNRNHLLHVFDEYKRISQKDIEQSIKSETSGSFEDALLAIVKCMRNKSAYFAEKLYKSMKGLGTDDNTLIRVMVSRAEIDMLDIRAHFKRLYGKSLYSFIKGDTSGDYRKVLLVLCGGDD

T2: His-tag-ANXA4 (annexin A4) (UniProt P09525 1-319, in MST only: labelled with His-Tag Labeling Kit RED-tris-NTA (NT647 fluorophore))
T2 chain: T1 sequence (P09525 1-319)

T3: His-tag-ANXA4 (annexin A4) (UniProt P09525 1-319, in MST only: labelled with His-Tag Labeling Kit RED-tris-NTA (NT647 fluorophore))
T3 construct: annexin A4 (ANXA4); Probably human ANXA4, since the work is on human lung cancer cells; also called NT647-ANXA4; ANX4; source: expressed by Genscript (lot N. U8886ED090-5/P3ED001); not shown: His6, C-terminal, kept
T3 sequence (looked up): T1 sequence (P09525 1-319)

B1: FHIT mimetic peptide 7-13 (peptide 1) (peptide)
peptide: Ac-QHLIKPS-NH2
notes: FHIT (fragile histidine triad protein), residues 7-13; also called FHIT (7-13); lead peptide; source: synthetic peptide (Fmoc solid phase, RP-HPLC purified)
B2: peptide 8 (AHLIKPS) (peptide)
peptide: Ac-AHLIKPS-NH2
notes: FHIT residues 7-13 with Gln1 of the peptide replaced by Ala; numbers count on: the peptide (residue 1 = Gln7 of FHIT); Gln1 is Q7 of FHIT; also called analogue 8; source: synthetic peptide (Fmoc solid phase, RP-HPLC purified)
B3: peptide 2 (QHLIKPA) (peptide)
peptide: Ac-QHLIKPA-NH2
notes: FHIT residues 7-13 with Ser7 of the peptide replaced by Ala; numbers count on: the peptide (residue 1 = Gln7 of FHIT); Ser7 is S13 of FHIT; also called analogue 2; source: synthetic peptide (Fmoc solid phase, RP-HPLC purified)
B4: peptide 4 (QHLIAPS) (peptide)
peptide: Ac-QHLIAPS-NH2
notes: FHIT residues 7-13 with Lys5 of the peptide replaced by Ala; numbers count on: the peptide (residue 1 = Gln7 of FHIT); Lys5 is K11 of FHIT; also called analogue 4; source: synthetic peptide (Fmoc solid phase, RP-HPLC purified)
B5: peptide 7 (QALIKPS) (peptide)
peptide: Ac-QALIKPS-NH2
notes: FHIT residues 7-13 with His2 of the peptide replaced by Ala; numbers count on: the peptide (residue 1 = Gln7 of FHIT); His2 is H8 of FHIT; also called derivative 7; source: synthetic peptide (Fmoc solid phase, RP-HPLC purified)
B6: peptide 6 (QHAIKPS) (peptide)
peptide: Ac-QHAIKPS-NH2
notes: FHIT residues 7-13 with Leu3 of the peptide replaced by Ala; numbers count on: the peptide (residue 1 = Gln7 of FHIT); Leu3 is L9 of FHIT; also called derivative 6; source: synthetic peptide (Fmoc solid phase, RP-HPLC purified)
B7: peptide 5 (QHLAKPS) (peptide)
peptide: Ac-QHLAKPS-NH2
notes: FHIT residues 7-13 with Ile4 of the peptide replaced by Ala; numbers count on: the peptide (residue 1 = Gln7 of FHIT); Ile4 is I10 of FHIT; also called analogue 5; source: synthetic peptide (Fmoc solid phase, RP-HPLC purified)
B8: peptide 3 (QHLIKAS) (peptide)
peptide: Ac-QHLIKAS-NH2
notes: FHIT residues 7-13 with Pro6 of the peptide replaced by Ala; numbers count on: the peptide (residue 1 = Gln7 of FHIT); Pro6 is P12 of FHIT; also called analogue 3; source: synthetic peptide (Fmoc solid phase, RP-HPLC purified)

Assays:
ANXA4 = biological target: T1, ANXA4; test: NanoDSF thermal unfolding of ANXA4 with peptides; format: binding; settings: peptide 200 μM, protein 40 µM; for Tm (°C): ramp 20-95°C, Ctrl 48.5; for ΔTm at 200 µM: versus Ctrl
Method: The assay was carried out in PBS (pH 7.4, 5 mM CaCl2) buffer using 40 μM of protein and 200 μM of compounds. The samples were loaded into nanoDSF Grade Standard Capillaries (NanoTemper Technologies) and analyzed using the Prometheus NT.48 nanoDSF device (NanoTemper Technologies). Thermal unfolding of the protein was monitored using a linear thermal ramp (1°C/min; 20°C–95°C) with an excitation power of 90%. […] In control, the sample was replaced with buffer solution. Three independent measurements were carried out for each compound, and their mean is depicted. The fluorescence intensity ratio and its first derivative were calculated with the manufacturer’s software (PR.ThermControl, version 2.1.2).
NanoDSF is an advanced differential scanning fluorimetry method for measuring melting temperature (Tm) of peptide-protein complex. In nanoDSF, a protein in solution is exposed to a temperature gradient that leads to the unfolding of the protein. The intrinsic fluorescence of the protein, mainly originating from the aromatic sidechains of tyrosine and tryptophan residues, is examined. Upon unfolding, the environment of those residues alters because they become exposed to the solvent and, thus, their fluorescence intensity changes. The relation between fluorescence intensity changes and temperature gradient can be used to obtain a so-called apparent Tm.

A549 cells = format: cell-based; settings: peptide (100 μM) + paclitaxel (800 nM); 72 h
Method: A549 were grown in appropriate medium (Sigma Aldrich, St. Louis, MO) supplemented with 10% fetal bovine serum (FBS) (Sigma Aldrich, St. Louis, MO), 1% penicillin/streptomycin (Sigma Aldrich, St. Louis, MO) at 37°C in a 5% CO2 incubator. A549, adenocarcinoma cells line, were treated using a combo of paclitaxel (800 nM, PTX) and peptides (10 μM, 50 μM, 100 µM). After 24, 48, and 72 h, 10 μL/well of CTG detection mix, from CellTiter-Glo Assay Kit (Promega Corp, Madison, United States), were added; plates were gently mixed, incubated for 10 min in the dark, and read using EnVision Multilabel 2103.  FIGURE 8 Inhibition of A549 cell viability in cells treated with paclitaxel (800 nM) and peptides 1–8 (100 μM). Cells were plated in triplicate in 384-well plates and treated with PTX and peptides (DMSO was used as a […] control) for 24, 48, or 72 h. Cell viability was measured using CellTiter assay as described in the Materials and Methods section. Cell viability was expressed as a percentage of control and each column represents the mean ± SD of three independent experiments.

[1] = tested on: Annexin A4 translocation in A549 and Calu-2 lung cancer cells; set-up: method as in Gaudio et al., 2013; settings: A549 and Calu-2 lung cancer cells treated with paclitaxel; ref Gaudio et al., 2013; cited from earlier work
[2] = biological target: T2, His-tag-ANXA4 (annexin A4); test: SPR
[3] = biological target: T3, His-tag-ANXA4 (annexin A4); test: MST; Monolith NT.115pico; 40 nM NT647-labelled ANXA4 mixed 1:1 with serial dilutions of peptide (highest 50 uM); PBS pH 7.4, 5 mM CaCl2; 10 min at rt; standard-treated capillaries, high MST power, LED 10%; duplicates; settings: both partners purified
[4] = biological target: T3, His-tag-ANXA4 (annexin A4); test: SPR; Biacore T200; His-tag-ANXA4 captured on anti-histidine antibody coupled to CM5 chip; peptide 0.08-5 uM injected at 25 C, 30 uL/min, 120 s association, 600 s dissociation; HBS-P+ pH 7.4 with 5 mM CaCl2; global 1:1 fit, KD = kd/ka; settings: both partners purified

Molecule | Tm (°C) (ANXA4) | ΔTm at 200 µM (ANXA4) | Kd [3] | Kd [4] | further results
Ac-QHAIKPS-NH2 [peptide 6, QHAIKPS] | 48.9 °C | 0.4 °C |  |  | Biological activity in combination with paclitaxel compared to reference peptide 1 (in words) (A549 cells): slightly improves the paclitaxel cytotoxicity
Ac-QHLIKPA-NH2 (N-terminus and C-terminus assumed) [peptide 2, QHLIKPA] | 48.7 °C | 0.2 °C |  |  | Biological activity in combination with paclitaxel compared to reference peptide 1 (in words) (A549 cells): basically preserves the biological activity
Ac-AHLIKPS-NH2 [peptide 8, AHLIKPS] | 48.9 °C | 0.4 °C |  |  | Biological activity in combination with paclitaxel compared to reference peptide 1 (in words) (A549 cells): decrease of cell viability compared to reference peptide 1
Ac-QHLIKAS-NH2 [peptide 3, QHLIKAS] |  | 0.5 °C |  |  | 
Ac-QHLIKPS-NH2 [peptide 1, QHLIKPS] | 48.6 °C | 0.1 °C |  |  | Inhibition of Annexin A4 translocation from cytosol to plasma membrane [1]: inhibiting Annexin A4 translocation from cytosol to plasma membrane
Ac-QHLIAPS-NH2 [peptide 4, QHLIAPS] | 49.2 °C | 0.7 °C |  |  | 
Ac-QHLAKPS-NH2 [compound 5, QHLAKPS] | 49.2 °C | 0.7 °C |  |  | 
Ac-QALIKPS-NH2 [peptide 7, QALIKPS] | 49.1 °C | 0.6 °C |  |  | Biological activity in combination with paclitaxel compared to reference peptide 1 (in words) (A549 cells): slightly improves the paclitaxel cytotoxicity
B1 |  |  | 4650 nM | 840 ± 50 nM | Kd [2]: 1260 nM
B2 |  |  | 3040 nM | 1520 ± 330 nM | 
B3 |  |  | 218 nM | 552 ± 80 nM | 
B4 |  |  | 146 nM | 53 ± 10 nM | 
B5 |  |  | 1130 nM | 850 ± 55 nM | 
B6 |  |  | 6400 nM |  | 
B7 |  |  | 1410 nM |  | 
B8 |  |  | 14 nM | 375 ± 20 nM | 
